Results taken from PMC11489056, “Molecular mechanism of a triazole-containing inhibitor of Mycobacterium tuberculosis DNA gyrase” (iScience, 2024).
pIC50: −log10 of the molar value. Converted amounts (≈) assume the structure as drawn. Read-outs that look alike come from different tables or passages of the source.

Experiments:
physchem [1] = assay type: physicochemical; details: pH 7.4, aqueous buffer, kinetic from dmso stock
Method: 10μL of a 10 mM solution in DMSO of the compound are diluted in 490 μL of PBS pH 7.4 in Matrix tube (in triplicate) or organic solvent (ACN, MeOH) in Matrix tube (in triplicate). The tubes are gently shaken 24h at room temperature. Then the tubes are centrifuged for 5 minutes at 4000 rpm and filtered over 0.45 μm filters (Millex-LH Millipore). 20 μL of each tube are diluted in 180 μL of MeOH. Analysis is performed thanks to a UPLC-MS/MS system (Waters) under SIM detection using the parameters optimized for each compound. HPLC analysis was performed using an Aquity C18 (50x2.1 mm, 1.8 μm); the gradient and the mobile phase (flow rate 600 μL/min^-1) used are determined in order to detect the compound of interest with satisfying retention time and peak shape. Acquisition and analysis of data were performed with Masslynx software. The solubility is determined by the ratio of mass signal area PBS/ organic solvent.

physchem [2] = assay type: physicochemical; details: pH 7.4
Method: 40 μL of a 10 mM solution in DMSO of the compound were diluted in 1.960 mL of a 1/1 octanol/PBS at pH 7.4 solution. The mixture was gently shaken 2h at room temperature. 20 μL of each solution was diluted in 480 μμL of MeOH and analyzed by LC-MS. Each compound is tested in triplicate. Analysis is performed thanks to a UPLC-MS/MS triple-quadrupole system (Waters) under SIM or MRM detection using the parameters optimized for each compound. HPLC analysis was performed using an Aquity C18 (50x2.1 mm, 1.8 μm); the gradient and the mobile phase (flow rate 600μL/min^-1) used are determined in order to detect the compound of interest with satisfying retention time and peak shape. Acquisition and analysis of data were performed with MS Workstation™ software (version 6.3.0 or higher). LogD was determined as the logarithm of the ratio of concentrations of product in octanol and PBS, determined by mass signals.

E. coli = test: MIC, agar dilution method, ESKAPE strains; assay type: cell-based, Escherichia coli
S. aureus = test: MIC, agar dilution method, ESKAPE strains; assay type: cell-based; details: Staphylococcus aureus
E. faecium = test: MIC, agar dilution method, ESKAPE strains; assay type: cell-based; details: Enterococcus faecium; read-out: MIC E. faecium MDR(5)
A. baumannii = test: MIC, agar dilution method, ESKAPE strains; assay type: cell-based; details: Acinetobacter baumannii
[3] = target: wild-type E. coli DNA gyrase (Escherichia coli, UniProt P0AES4+P0AES6); test: biochemical; details: read-out: IC50 E. coli WT
wild-type Mtb gyrase = target: T1, wild-type Mtb gyrase (Mycobacterium tuberculosis, UniProt P9WG45+P9WG47); assay type: biochemical
T1 construct: His tag (TEV-cleavable) (N, cleaved yes); made in house; host or cells: E. coli Bli5 (DE3)

[4] = test system: Mycobacterium tuberculosis H37Rv WT; test: microbe, parasite or virus in culture; assay type: cell-based
[5] = test system: Corynebacterium glutamicum (Cglu) WT; test: MIC on Cglu WT; assay type: cell-based
K. pneumoniae = test: MIC, agar dilution method, ESKAPE strains; assay type: cell-based; details: Klebsiella pneumoniae
Mtb GyrBA fusion protein [6] = target: T2, Mtb GyrBA fusion protein (Mycobacterium tuberculosis, UniProt P9WG45+P9WG47); test: DNA cleavage assay on pBR322; assay type: biochemical; details: pBR322 5 nM, Mtb gyrase 200 nM, 5 μM inhibitor
T2 construct: His6 (TEV-cleavable) (N, cleaved yes); made in house; host or cells: E. coli Bli5 (DE3)

Mtb GyrBA fusion protein [7] = target: T2, Mtb GyrBA fusion protein; test: DNA cleavage competition with ciprofloxacin; assay type: biochemical
Mtb GyrBA fusion protein [8] = target: T2, Mtb GyrBA fusion protein; test: Cleavage complex persistence (DNA cleavage-religation assay); assay type: biochemical
[9] = test system: wild-type C. glutamicum ATCC1332 strain; test: Bacterial cell morphology (cell length) by microscopy; assay type: cell-based, Corynebacterium glutamicum; details: 10x MIC, 24h, vs DMSO control
Mtb = details: Figure 1F; cited from earlier work
Mtb gyrase = details: Figure 1E, GlaxoSmithKline MGIs; cited from earlier work
[10] = Escherichia coli, E. coli 10385 NDM-1, read-out: MIC E. coli MDR(2)
[11] = Escherichia coli, read-out: MIC E. coli WT(1)
[12] = read-out: MIC A. baumannii MDR(6)
[13] = Escherichia coli, 2 h, read-out: MIC E. coli WT
[14] = Escherichia coli, ATCC25922, read-out: MIC
[15] = Escherichia coli, E. coli 9003, BLSE, read-out: MIC
[16] = A. baumannii 09010, VEB-1, read-out: MIC

## COc1ccc2nccc(-n3cc(CCNCc4ccc5c(c4)NC(=O)CO5)nn3)c2c1 [BDM71346 (9c)]
Physchem [1]
  solubility at 24 h: 76.9 µg/mL (≈ 179 µM)
Physchem [2]
  logD: 1.32
E. coli; [10]
  MIC: 0.5 µg/mL (≈ 1.16 µM)
E. coli; [11]
  MIC: 8 µg/mL (≈ 18.6 µM)
S. aureus; read-out: MIC S. aureus MDR(4)
  MIC: 32 µg/mL (≈ 74.3 µM)
S. aureus; read-out: MIC S. aureus WT(3)
  MIC: 16 µg/mL (≈ 37.2 µM)
E. faecium
  MIC: 1 µg/mL (≈ 2.32 µM)
A. baumannii; [12]
  MIC: 4 µg/mL (≈ 9.29 µM)
[3]
  pIC50: 6.11

## COc1ccc2nccc(-n3cc(CCNC(=O)c4ccc5c(c4)NC(=O)CS5)nn3)c2c1 [BDM71367 (11a)]
Physchem [1]
  solubility at 24 h: < 0.17 µg/mL
Physchem [2]
  logD: > 2.65
E. coli; [10]
  MIC: 0.25 µg/mL (≈ 0.543 µM)
E. coli; [11]
  MIC: 8 µg/mL (≈ 17.4 µM)
S. aureus; read-out: MIC S. aureus MDR(4)
  MIC: 4 µg/mL (≈ 8.69 µM)
S. aureus; read-out: MIC S. aureus WT(3)
  MIC: 4 µg/mL (≈ 8.69 µM)
E. faecium
  MIC: 8 µg/mL (≈ 17.4 µM)
A. baumannii; [12]
  MIC: 4 µg/mL (≈ 8.69 µM)

## COc1ccc2nccc(-n3cc(CCNCc4ccc5c(c4)NC(=O)CS5)nn3)c2c1 [BDM71368 (9a)]
Physchem [1]
  solubility at 24 h: 84.7 µg/mL (≈ 190 µM)
Physchem [2]
  logD: 1.81
E. coli; [13]
  MIC: 1 µg/mL (≈ 2.24 µM)
E. coli; [10]
  MIC: ≤ 0.06 µg/mL
E. coli; [11]
  MIC: 1 µg/mL (≈ 2.24 µM)
S. aureus; read-out: MIC S. aureus MDR(4)
  MIC: 1 µg/mL (≈ 2.24 µM)
S. aureus; read-out: MIC S. aureus WT(3)
  MIC: 1 µg/mL (≈ 2.24 µM)
E. faecium
  MIC: 0.5 µg/mL (≈ 1.12 µM)
A. baumannii; [12]
  MIC: 1 µg/mL (≈ 2.24 µM)
[3]
  pIC50: 5.93
wild-type Mtb gyrase
  IC50 lower than ciprofloxacin: 10 fold
  IC50 lower than gepotidacin: 6 fold
[4]
  MIC: 1 µg/mL (≈ 2.24 µM)
[5]
  MIC: 0.5 µg/mL (≈ 1.12 µM)

## COc1ccc2nccc(-n3cc(CCNCc4ccc5c(c4)OCCO5)nn3)c2c1 [BDM71369 (9b)]
Physchem [1]
  solubility at 24 h: > 83.5 µg/mL
Physchem [2]
  logD: 1.21
E. coli; [10]
  MIC: 1 µg/mL (≈ 2.4 µM)
E. coli; [11]
  MIC: 32 µg/mL (≈ 76.7 µM)
S. aureus; read-out: MIC S. aureus MDR(4)
  MIC: 1 µg/mL (≈ 2.4 µM)
S. aureus; read-out: MIC S. aureus WT(3)
  MIC: 1 µg/mL (≈ 2.4 µM)
E. faecium
  MIC: 0.25 µg/mL (≈ 0.599 µM)
A. baumannii; [12]
  MIC: 32 µg/mL (≈ 76.7 µM)
[3]
  pIC50: 6.89

## COc1ccc2nccc(-n3cc(CCNC(=O)c4ccc5c(c4)OCCO5)nn3)c2c1 [BDM71373 (11b)]
Physchem [1]
  solubility at 24 h: 10.2 µg/mL (≈ 23.6 µM)
Physchem [2]
  logD: 2.35
E. coli; [10]
  MIC: 32 µg/mL (≈ 74.2 µM)
E. coli; [11]
  MIC: ≥ 32 µg/mL
S. aureus; read-out: MIC S. aureus MDR(4)
  MIC: ≥ 32 µg/mL
S. aureus; read-out: MIC S. aureus WT(3)
  MIC: ≥ 32 µg/mL
E. faecium
  MIC: ≥ 32 µg/mL
A. baumannii; [12]
  MIC: 32 µg/mL (≈ 74.2 µM)

## COc1ccc2nccc(-n3cc(CCNCc4ccc5c(c4)NC(=O)CS5)nn3)c2n1 [BDM71403 (10a)]
Physchem [1]
  solubility at 24 h: 44 µg/mL (≈ 98.3 µM)
Physchem [2]
  logD: 1.92
E. coli
  MIC: 0.5 µg/mL (≈ 1.12 µM)
E. coli; [13]
  MIC: 1 µg/mL (≈ 2.23 µM)
E. coli; [14]
  MIC: 1 µg/mL (≈ 2.23 µM)
E. coli; [15]
  MIC: 1 µg/mL (≈ 2.23 µM)
E. coli; Escherichia coli, E. coli 10269, NDM-1, read-out: MIC
  MIC: 1 µg/mL (≈ 2.23 µM)
E. coli; Escherichia coli, E. coli 10273, KPC-2, read-out: MIC
  MIC: 1 µg/mL (≈ 2.23 µM)
E. coli; Escherichia coli, E. coli 10385, NDM-1, read-out: MIC
  MIC: < 0.06 µg/mL
E. coli; [10]
  MIC: ≤ 0.06 µg/mL
E. coli; Escherichia coli, E. coli 10386, NDM-1, read-out: MIC
  MIC: 1 µg/mL (≈ 2.23 µM)
E. coli; Escherichia coli, read-out: MIC
  MIC: 1 µg/mL (≈ 2.23 µM)
E. coli; [11]
  MIC: 1 µg/mL (≈ 2.23 µM)
S. aureus; read-out: MIC S. aureus MDR(4)
  MIC: 0.25 µg/mL (≈ 0.559 µM)
S. aureus; read-out: MIC S. aureus WT(3)
  MIC: 0.25 µg/mL (≈ 0.559 µM)
E. faecium
  MIC: ≤ 0.06 µg/mL
A. baumannii; [16]
  MIC: 1 µg/mL (≈ 2.23 µM)
A. baumannii; A. baumannii 10275, VIM-4, read-out: MIC
  MIC: < 0.06 µg/mL
K. pneumoniae; K. pneumoniae 10270, VIM
  MIC: 4 µg/mL (≈ 8.94 µM)
K. pneumoniae; K. pneumoniae 10272, 0XA-48
  MIC: 2 µg/mL (≈ 4.47 µM)
K. pneumoniae; K. pneumoniae 10277, KPC-2
  MIC: 2 µg/mL (≈ 4.47 µM)
[3]
  pIC50: 7.10
wild-type Mtb gyrase
  IC50 lower than ciprofloxacin: 12 fold
  IC50 lower than gepotidacin: 7 fold
[4]
  MIC: 0.5 µg/mL (≈ 1.12 µM)
[5]
  MIC: 0.12 µg/mL (≈ 0.268 µM)
Mtb GyrBA fusion protein [6]
  minor population of linearized DNA: 10–20%
Mtb GyrBA fusion protein [7]
  concentration at which nicked DNA is diminished by 50%: 10 µM
  lower concentration for drop of nicked DNA to 50% in comparison with gepotidacin: 2.5 fold
Mtb GyrBA fusion protein [8]
  difference in complex half-life versus gepotidacin: 10 fold
[9]
  Cohen's d, cell length compared to control: 1.87
  effect size class, cell length compared to control: ∗∗∗ (very large (∗∗∗), 1.20 < d < 2.0)

## COc1ccc2nccc(-n3cc(CCNCc4ccc5c(c4)OCCO5)nn3)c2n1 [BDM71404 (10b)]
Physchem [1]
  solubility at 24 h: 66.9 µg/mL (≈ 160 µM)
Physchem [2]
  logD: 1.53
E. coli; [10]
  MIC: 0.25 µg/mL (≈ 0.597 µM)
E. coli; [11]
  MIC: 8 µg/mL (≈ 19.1 µM)
S. aureus; read-out: MIC S. aureus MDR(4)
  MIC: 0.25 µg/mL (≈ 0.597 µM)
S. aureus; read-out: MIC S. aureus WT(3)
  MIC: 0.25 µg/mL (≈ 0.597 µM)
E. faecium
  MIC: ≤ 0.06 µg/mL
[3]
  pIC50: 6.42

## O=C(O)c1cn(C2CC2)c2cc(N3CCNCC3)c(F)cc2c1=O [Ciprofloxacin, ciprofloxacin, reference compound]
E. coli; [13]
  MIC: ≤ 0.06 µg/mL
E. coli; [14]
  MIC: < 0.06 µg/mL
E. coli; [15]
  MIC: 16 µg/mL (≈ 48.3 µM)
E. coli; [11]
  MIC: ≤ 0.06 µg/mL
S. aureus; read-out: MIC S. aureus MDR(4)
  MIC: ≥ 128 µg/mL
E. faecium
  MIC: ≥ 128 µg/mL
A. baumannii; [16]
  MIC: > 32 µg/mL
[4]
  MIC: 1 µg/mL (≈ 3.02 µM)
[5]
  MIC: 0.25 µg/mL (≈ 0.754 µM)
[9]
  Cohen's d, cell length compared to control: 2.08

## COc1cnc2ccc(=O)n(CCN3CCC(Nc4cnc(CO)c(Cl)c4)CC3)c2c1 [EC/11716]
Mtb
  MIC: 0.17 µg/mL (≈ 0.383 µM)

## COc1cnc2ccc(=O)n(CCN3CCC(Nc4ccc(Cl)c(Cl)c4)CC3)c2c1 [GSK000]
Mtb gyrase
  pIC50: 5.27

## O=c1ccc2ncc(=O)n3c2n1C[C@H]3CN1CCC(NCc2cc3c(cn2)OCCC3)CC1 [Gepotidacin, gepotidacin, reference compound]
[4]
  MIC: 4 µg/mL (≈ 8.92 µM)
[5]
  MIC: 0.2 µg/mL (≈ 0.446 µM)
Mtb GyrBA fusion protein [6]
  minor population of linearized DNA: 10–20%
[9]
  Cohen's d, cell length compared to control: 2.36
  effect size class, cell length compared to control: ∗∗∗∗ (huge (∗∗∗∗), d > 2.0)
